Laboratory results as given in patent US20160316790A1, “BETA-HINOKITIOL DERIVATIVES AND APPLICATIONS THEREOF IN PREPARATION OF ANIMAL ANTIBACTERIAL AGENTS AND ANTIBACTERIAL GROWTH PROMOTERS USED IN FEED” (GUANGZHOU INSIGHTER BIOTECHNOLOGY CO., LTD., priority 2013, published 2016).
In brackets after ≈: the same amount, converted by molar mass. Several values for one entry are separate records, joined by “and”; a condition that tells them apart may be missing. Equal entries are not always repeated. Where two headings read alike, the source gives them in different places.

Columns and labels:
[1] = test system: clostridium perfringens; test: microbe, parasite or virus in culture; assay type: cell-based
[2] = test system: salmonellas; test: Minimum inhibitory concentration in vitro, doubling dilutions; assay type: cell-based
[3] = test system: escherichia coli; test: as above; assay type: cell-based
[4] = test system: haemophilus parasuis; test: as above; assay type: cell-based; settings: Glaesserella parasuis
[5] = test system: riemerella anatipestifer; test: as above; assay type: cell-based
[6] = test system: vibrio; test: as above; assay type: cell-based
[7] = test system: streptococcus; test: as above; assay type: cell-based
[8] = Application effect test of β-hinokitiol derivatives in broiler feeds; assay type: in vivo, fast-grown type yellow feather broilers; settings: 14 days
Text: 598 fast-grown type yellow feather broilers (female) aged 30-days were divided into five groups according to table 5. […] During the test, the broilers ate food and drank water freely. The test lasted for 14 days. […] [table]

[9] = test system: major animal pathogenic bacteria; test: In vitro antibacterial activity (MICs), overall statement; assay type: cell-based; settings: Tables 1 to 4
[10] = Effect of β-hinokitiol derivatives on diarrhea of weaned pigs; assay type: in vivo; settings: weaned pigs, 10 days
Text: 80 25-day-old weaned pigs were randomly divided into eight groups according to table 7, 10 pigs in each group. […] During the testing, the pigs ate food and drank water freely with temperature preservation. The test lasted for 10 days.

[11] = test system: staphylococcus aureus; test: Minimum inhibitory concentration in vitro, doubling dilutions; assay type: cell-based
[12] = read-out: Minimum inhibitory concentration (MIC), Clostridium JM1210B
[13] = read-out: Minimum inhibitory concentration (MIC), Clostridium JM1212A
[14] = strain FS1303B, read-out: Minimum inhibitory concentration (MIC), Salmonellas FS1303B
[15] = strain GD1303-3, read-out: Minimum inhibitory concentration (MIC), Salmonellas GD1303-3
[16] = read-out: Minimum inhibitory concentration (MIC), Eserichia coli HZ1308-1
[17] = read-out: Minimum inhibitory concentration (MIC), Eserichia coli SS1107A
[18] = read-out: Minimum inhibitory concentration (MIC), Haemophilus parasuis 2-3A
[19] = read-out: Minimum inhibitory concentration (MIC), Haemophilus parasuis S5A
[20] = read-out: Minimum inhibitory concentration (MIC), Riemerella anatipestifer SCAU03
[21] = strain WS, read-out: Minimum inhibitory concentration (MIC), Riemerella anatipestifer WS
[22] = read-out: Minimum inhibitory concentration (MIC), Vibrio VP3
[23] = read-out: Minimum inhibitory concentration (MIC), Vibrio VP5
[24] = read-out: Minimum inhibitory concentration (MIC), Streptococcus KP1307-1
[25] = strain TS1205-2, read-out: Minimum inhibitory concentration (MIC), Streptococcus TS1205-2
[26] = strain 2-3A, read-out: Minimum inhibitory concentration (MIC), Haemophilus parasuis 2-3A
[27] = strain KP1307-1, read-out: Minimum inhibitory concentration (MIC), Streptococcus KP1307-1
[28] = broilers, 40 ppm mixed with feed

| Compound | MIC [1, 12] | MIC [1, 13] | MIC [2, 14] | MIC [2, 15] | MIC [3, 16] | MIC [3, 17] | MIC [4, 19] | MIC [5, 20] | MIC [5, 21] | MIC [6, 22] | MIC [6, 23] | MIC [7, 25] | MIC [4, 26] | MIC [7, 27] | other results |
| --- | --- | --- | --- | --- | --- | --- | --- | --- | --- | --- | --- | --- | --- | --- | --- |
| CCc1cccc(=O)c(O)c1 [IST_009_018, 4-ethyl-2-hydroxycyclohepta-2,4,6-trienone] | 3.13 µg/mL (≈ 20.8 µM) | 3.13 µg/mL (≈ 20.8 µM) | 12.5 µg/mL (≈ 83.2 µM) | 25 µg/mL (≈ 166 µM) | 25 µg/mL (≈ 166 µM) | 50 µg/mL (≈ 333 µM) | 1.56 µg/mL (≈ 10.4 µM) | 12.5 µg/mL (≈ 83.2 µM) | 6.25 µg/mL (≈ 41.6 µM) | 25 µg/mL (≈ 166 µM) | 25 µg/mL (≈ 166 µM) | > 100 µg/mL | – | – | MIC [4, 18]: 3.13 µg/mL (≈ 20.8 µM); MIC [7, 24]: 12.5 µg/mL (≈ 83.2 µM) |
| CCCCc1cccc(=O)c(O)c1 [IST_009_019, 4-butyl-2-hydroxycyclohepta-2,4,6-trienone] | 12.5 µg/mL (≈ 70.1 µM) | 6.25 µg/mL (≈ 35.1 µM) | 25 µg/mL (≈ 140 µM) | 25 µg/mL (≈ 140 µM) | 25 µg/mL (≈ 140 µM) | 25 µg/mL (≈ 140 µM) | 0.2 µg/mL (≈ 1.12 µM) | – | – | 50 µg/mL (≈ 281 µM) | 50 µg/mL (≈ 281 µM) | 25 µg/mL (≈ 140 µM) | 0.39 µg/mL (≈ 2.19 µM) | > 100 µg/mL | – |
| CCCCCc1cccc(=O)c(O)c1 [IST_009_003, 2-hydroxy-4-pentylcyclohepta-2,4,6-trienone] | 6.25 µg/mL (≈ 32.5 µM) | 6.25 µg/mL (≈ 32.5 µM) | 6.25 µg/mL (≈ 32.5 µM) | 12.5 µg/mL (≈ 65 µM) | 6.25 µg/mL (≈ 32.5 µM) | 12.5 µg/mL (≈ 65 µM) | – | 12.5 µg/mL (≈ 65 µM) | 3.13 µg/mL (≈ 16.3 µM) | 50 µg/mL (≈ 260 µM) | 25 µg/mL (≈ 130 µM) | – | 0.2 µg/mL (≈ 1.04 µM) | – | MIC [7, 24]: 12.5 µg/mL (≈ 65 µM); MIC ([7]; read-out: Minimum inhibitory concentration (MIC), Streptococcus TS1205-2): 12.5 µg/mL (≈ 65 µM); Average daily weight gain [8, 28]: 36.21 g/d * bird and 34.19 g/d * bird and 37.14 g/d * bird; Average weight gain [8, 28]: 502.05 g and 449.90 g and 534.50 g; Total consumption [8, 28]: 58.05 kg and 57.71 kg and 58.17 kg; feed conversion efficiency [8, 28]: 2.862 and 2.952 and 2.868; weight gain and feed conversion efficiency of the experimental broilers (in words) ([8]; in feed): could enhance the weight gain and the feed conversion efficiency; antibacterial activities compared with the lead compound IST_001_002 (in words) [9]: better than those of the lead compound IST_001_002 |
| Colistin sulfate [reference compound] | – | – | – | – | – | – | – | – | – | – | – | – | – | – | Average daily diarrhea rate ([10]; 60 ppm in diet): 30% and 33% |
| O=c1cccc(CCCF)cc1O [IST_009_031, 4-(3-fluoropropyl)-2-hydroxycyclohepta-2,4,6-trienone] | 6.25 µg/mL (≈ 34.3 µM) | 6.25 µg/mL (≈ 34.3 µM) | 50 µg/mL (≈ 274 µM) | 50 µg/mL (≈ 274 µM) | 25 µg/mL (≈ 137 µM) | 100 µg/mL (≈ 549 µM) | 3.13 µg/mL (≈ 17.2 µM) | – | – | – | – | – | – | – | MIC [4, 18]: 6.25 µg/mL (≈ 34.3 µM) |
| CC(C)c1cccc(=O)c(O)c1 [IST_001_002, 2-hydroxy-4-isopropyl-1-cycloheptatrienone, reference compound] | 6.25 µg/mL (≈ 38.1 µM) | 12.5 µg/mL (≈ 76.1 µM) | 25 µg/mL (≈ 152 µM) | 25 µg/mL (≈ 152 µM) | 25 µg/mL (≈ 152 µM) | 25 µg/mL (≈ 152 µM) | – | – | – | 25 µg/mL (≈ 152 µM) | 25 µg/mL (≈ 152 µM) | 50 µg/mL (≈ 304 µM) | 0.78 µg/mL (≈ 4.75 µM) | 50 µg/mL (≈ 304 µM) | MIC ([11]; strain PNB14, read-out: Minimum inhibitory concentration (MIC), Staphylococcus aureus PNB14): 25 µg/mL (≈ 152 µM); MIC ([11]; strain SA10, read-out: Minimum inhibitory concentration (MIC), Staphylococcus aureus SA10): 25 µg/mL (≈ 152 µM); MIC ([5]; read-out: Minimum inhibitory concentration (MIC), Riemerella anatipestifer WS): 6.25 µg/mL (≈ 38.1 µM); MIC ([5]; strain SCAU03, read-out: Minimum inhibitory concentration (MIC), Riemerella anatipestifer SCAU03): 25 µg/mL (≈ 152 µM); Average daily diarrhea rate ([10]; 30 ppm in diet): 35% and 32% |
| O=c1cccc(Cc2ccccc2)cc1O [IST_009_004, 4-benzyl-2-hydroxycyclohepta-2,4,6-trienone] | 12.5 µg/mL (≈ 58.9 µM) | 12.5 µg/mL (≈ 58.9 µM) | 25 µg/mL (≈ 118 µM) | 25 µg/mL (≈ 118 µM) | 12.5 µg/mL (≈ 58.9 µM) | 25 µg/mL (≈ 118 µM) | 0.2 µg/mL (≈ 0.942 µM) | 12.5 µg/mL (≈ 58.9 µM) | 6.25 µg/mL (≈ 29.4 µM) | 50 µg/mL (≈ 236 µM) | 50 µg/mL (≈ 236 µM) | 50 µg/mL (≈ 236 µM) | 0.78 µg/mL (≈ 3.67 µM) | 6.25 µg/mL (≈ 29.4 µM) | – |
